The values that follow come from patent US4416874A, “Injectable compositions of BBM-928A” (Bristol-Myers Company, priority 1982, dated 1983).

Series [1] is described as follows: Solubility in solvents and pharmaceutical vehicles. In kind it is physicochemical. The procedure: Is thus evident that due to the hydrolytic sensitivity and insolubility of BBM-928A that a formidable pharmaceutical formulation problem is presented for the intravenous use thereof.
The disodium salt of BBM-928A has been prepared by dissolving BBM-928A in aqueous sodium hydroxide at pH 10.5, washing with chloroform, and lyophilizing the aqueous solution. Its solubility in water is 0.5 mg/ml. In the dry state disodium BBM-928A gradually decomposes to BBM-928B and BBM-928C at higher temperatures. The following Table exemplifies this:
Limited solubility in the following solvents was observed.
(§1) The preferred composition of the present invention employs trisodium orthophosphate as the base for solubilization of BBM-928A. Solutions having concentrations of BBM-928A of from 1 to 5 mg per milliliter are readily prepared when 0.65 parts by weight of trisodium orthophosphate per part by weight of BBM-928A are employed. Such solutions have a pH within the range of 11.0 to 11.5. If an amount of the base is employed which is insufficient to provide a pH value of pH 11.0 the desired level of solubilization of the BBM-928A is not achieved. At pH values in excess of 11.5 decomposition through hydrolysis of the BBM-928A becomes so extensive as to result in loss of utility of the solutions. […] Such solutions should not be kept for longer periods but should be prepared extemporaneously prior to use. Conventional aseptic techniques conforming to the criteria of both good laboratory practices and good manufacturing practices should be employed in preparing the compositions of the present invention.

Series [2] is described as follows: Stability of intravenous solutions at pH 11.0 to 11.5 (high performance liquid chromatography). It counts as physicochemical. Conditions: intravenous solution solubilized by trisodium phosphate. The protocol: as §1, with “Conventional aseptic techniques conforming to the criteria of both good laboratory practices and good manufacturing practices should be employed in preparing the compositions of the present invention.” left out
The resulting bulk powder is then filled into glass vials at the rate of 16.5 mg. per vial (10 mg. BBM-928A), and the vials sealed by a proper closure to maintain the anhydrous sterile condition. […] Each vial is constituted for intravenous injection with the desired quantity of sterile water for injection in an amount of 2 ml. or more per vial (conc. up to 5 mg/ml. and preferably from 1 to 5 mg/ml. of BBM-928A). […]

For series [3] the following is noted: chloroform and methylene chloride; cited from earlier work.

SMILES strings stand for the structures. In brackets after ≈: the same amount, converted by molar mass. Read-outs that look alike come from different tables or passages of the source.

A word on the solubility: it is the dissolved amount per volume that the medium holds. With `COc1ccc2nc(C(=O)N[C@@H]3COC(=O)[C@H](C(C)(C)O)N(C)C(=O)CN(C)C(=O)CNC(=O)[C@@H]4[C@@H](OC(C)=O)CC=NN4C(=O)[C@H](NC(=O)c4nc5ccc(OC)cc5cc4O)COC(=O)[C@H](C(C)(C)O)N(C)C(=O)CN(C)C(=O)CNC(=O)[C@@H]4[C@@H](OC(C)=O)CC=NN4C3=O)c(O)cc2c1` [BBM-928A], the solubility in series [1] (Aqueous L-arginine 10%, yellow solution with a slight haze) was 1000 µg/mL (≈ 701 µM); in series [1] (Ethyl lactate, slight haze) it was “about 1 mg/ml”; in series [1] (Ethyl levulinate, standing in contact with the solvent overnight), 500 µg/mL (≈ 350 µM); in series [1] (Lactic acid U.S.P.), 1000 µg/mL (≈ 701 µM); in series [3], “readily soluble”. Moreover, the “solubility in 22 commonly employed pharmaceutical vehicles” value in series [1] (poloxamer polyols, benzyl alcohol, ethanol, fixed oils, propylene glycol, polyethylene glycol 400, urea, povidone, nicotinamide, dextrose solutions etc.) is “virtually insoluble”. The “period of sufficient stability for use following preparation” value in series [2] is given as “up to 4 hours”.
